In patent US20240287076A1, “COMPOUNDS FOR TARGETING DEGRADATION OF BRUTON'S TYROSINE KINASE” (BIOGEN MA INC., priority 2021, published 2024):

target: T1, BTK (Homo sapiens, UniProt Q06187); test: BTK degradation assay using the HiBiT Method (Nano-Glo HiBiT Lytic Assay, GM01501.3 cells); assay type: cell-based; conditions: HiBiT Degradation on GM01501.3 BTK @ 6 hours
T1 construct: The GM01501.3 cell line endogenously expresses BTK with a HiBiT fusion tag via CRISPR knock-in at its C-terminal region; endogenous in cells; host or cells: GM01501.3 (GM01501 cells engineered by CRISPR knock-in of HiBiT at the BTK locus)
Summary of the method: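 CRISPR knock-in GM01501.3 cells expressing endogenous BTK with C-terminal HiBiT tag, treated 6 h at 37 °C with compounds, 11-point half-log titration from 10 μM top, duplicates. Remaining BTK quantified by Nano-Glo HiBiT lytic luminescence versus DMSO controls; DC50 reported.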

T1 sequence (Q06187 whole entry, the tested form may be a part): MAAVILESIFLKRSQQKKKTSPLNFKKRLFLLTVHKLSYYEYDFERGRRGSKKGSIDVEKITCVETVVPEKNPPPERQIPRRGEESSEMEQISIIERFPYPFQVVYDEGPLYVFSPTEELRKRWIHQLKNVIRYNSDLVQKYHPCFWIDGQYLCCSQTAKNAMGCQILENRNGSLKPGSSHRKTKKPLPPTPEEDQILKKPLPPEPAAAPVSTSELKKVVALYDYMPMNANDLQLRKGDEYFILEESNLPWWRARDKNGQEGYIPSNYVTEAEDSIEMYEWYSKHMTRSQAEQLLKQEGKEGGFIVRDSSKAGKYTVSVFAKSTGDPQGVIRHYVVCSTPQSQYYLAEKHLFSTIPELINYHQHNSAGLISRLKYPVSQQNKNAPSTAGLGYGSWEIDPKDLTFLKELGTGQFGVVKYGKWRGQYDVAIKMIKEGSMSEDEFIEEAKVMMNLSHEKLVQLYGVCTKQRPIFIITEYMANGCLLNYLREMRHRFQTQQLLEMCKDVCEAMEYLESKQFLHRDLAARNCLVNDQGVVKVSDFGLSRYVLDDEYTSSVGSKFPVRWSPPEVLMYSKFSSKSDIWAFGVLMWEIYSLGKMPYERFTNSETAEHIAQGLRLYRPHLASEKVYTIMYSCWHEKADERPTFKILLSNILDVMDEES

DC50, < 100 nM:
Cc1cc(-c2ncnn3cc(N4CCN(C(=O)CCC5CCCN5C(=O)c5ccc(OC6CCC(=O)NC6=O)cc5)CC4)cc23)ccc1CNC(=O)c1noc(C(C)(C)C)n1 (stereo not drawn) [Example 181, 5-(tert-butyl)-N-(4-(6-(4-(3-(1-(4-((2,6-dioxopiperidin-3-yl)oxy)benzoyl)pyrrolidin-2-y1)propanoyl)piperazin-1-yl)pyrrolo[2,1-f][1,2,4]triazin-4-yl)-2-methylbenzyl)-1,2,4-oxadiazole-3-carboxamide]
Cc1cc(-c2ncnn3cc(N4CCN(C(=O)CCCCC5CCN(C(=O)c6ccc(OC7CCC(=O)NC7=O)cc6)CC5)CC4)cc23)ccc1CNC(=O)c1noc(C(C)(C)C)n1 (stereo not drawn) [Example 182, 5-(tert-butyl)-N-(4-(6-(4-(5-(1-(4-((2,6-dioxopiperidin-3-yl)oxy)benzoyl)piperidin-4-yl)pentanoyl)piperazin-1-yl)pyrrolo[2,1-f][1,2,4]triazin-4-yl)-2-methylbenzyl)-1,2,4-oxadiazole-3-carboxamide]
Cc1cc(-c2ncnn3cc(N4CCN(C(=O)CCc5ccccc5CNC(=O)c5ccc(OC6CCC(=O)NC6=O)cc5)CC4)cc23)ccc1CNC(=O)c1noc(C(C)(C)C)n1 (stereo not drawn) [Example 183, 5-(tert-butyl)-N-(4-(6-(4-(3-(2-((4-((2,6-dioxopiperidin-3-yl)oxy)benzamido)methyl)phenyl)propanoy 1)piperazin-1-yl)pyrrolo[2,1-f][1,2,4]triazin-4-y1)-2-methylbenzyl)-1,2,4-oxadiazole-3-carboxamide]
Cc1cc(-c2ncnn3cc(N4CCN(C(=O)CCCC5CN(C(=O)c6ccc(OC7CCC(=O)NC7=O)cc6)C5)CC4)cc23)ccc1CNC(=O)c1noc(C(C)(C)C)n1 (stereo not drawn) [Example 184, 5-(tert-butyl)-N-(4-(6-(4-(4-(1-(4-((2,6-dioxopiperidin-3-yl)oxy)benzoyl)azetidin-3-yl)butanoyl)piperazin-1-yl)pyrrolo[2,1-f][1,2,4]triazin-4-yl)-2-methylbenzyl)-1,2,4-oxadiazole-3-carboxamide]
Cc1cc(-c2ncnn3cc(N4CCN(C(=O)CC5CC6(C5)CN(C(=O)c5ccc(OC7CCC(=O)NC7=O)cc5)C6)CC4)cc23)ccc1CNC(=O)c1noc(C(C)(C)C)n1 (stereo not drawn) [Example 185, 5-(tert-butyl)-N-(4-(6-(4-(2-(2-(4-((2,6-dioxopiperidin-3-yl)oxy)benzoyl)-2-azaspiro[3.3]heptan-6-yl)acetyl)piperazin-1-yl)pyrrolo[2,1-f][1,2,4]triazin-4-yl)-2-methylbenzyl)-1,2,4-oxadiazole-3-carboxamide]
Cc1cc(-c2ncnn3cc(N4CCN(C(=O)C5CC6(CCCN6C(=O)c6ccc(OC7CCC(=O)NC7=O)cc6)C5)CC4)cc23)ccc1CNC(=O)c1noc(C(C)(C)C)n1 (stereo not drawn) [Example 186, 5-(tert-butyl)-N-(4-(6-(4-(5-(4-((2,6-dioxopiperidin-3-yl)oxy)benzoyl)-5-azaspiro[3.4]octane-2-carbonyl)piperazin-1-yl)pyrrolo[2,1-f][1,2,4]triazin-4-yl)-2-methylbenzyl)-1,2,4-oxadiazole-3-carboxamide]
Cc1cc(-c2ncnn3cc(N4CCN(C(=O)C5CCOC5CNC(=O)c5ccc(OC6CCC(=O)NC6=O)cc5)CC4)cc23)ccc1CNC(=O)c1noc(C(C)(C)C)n1 (stereo not drawn) [Example 187, 5-(tert-butyl)-N-(4-(6-(4-(2-((4-((2,6-dioxopiperidin-3-yl)oxy)benzamido)methyl)tetrahydrofuran-3-carbonyl)piperazin-1-yl)pyrrolo[2,1-f][1,2,4]triazin-4-yl)-2-methylbenzyl)-1,2,4-oxadiazole-3-carboxamide]
Cc1cc(-c2ncnn3cc(N4CCN(C(=O)[C@@H]5CCC[C@H](NC(=O)c6ccc(OC7CCC(=O)NC7=O)cc6)C5)CC4)cc23)ccc1CNC(=O)c1noc(C(C)(C)C)n1 (stereo partly drawn) [Example 188, 5-(tert-butyl)-N-(4-(6-(4-((1R,3S)-3-(4-((2,6-dioxopiperidin-3-yl)oxy)benzamido)cyclohexane-1-carbonyl)piperazin-1-yl)pyrrolo[2,1-f][1,2,4]triazin-4-yl)-2-methylbenzyl)-1,2,4-oxadiazole-3-carboxamide]
Cc1cc(-c2ncnn3cc(N4CCN(C(=O)c5ncoc5CNC(=O)c5ccc(OC6CCC(=O)NC6=O)cc5)CC4)cc23)ccc1CNC(=O)c1noc(C(C)(C)C)n1 (stereo not drawn) [Example 189, 5-(tert-butyl)-N-(4-(6-(4-(5-((4-((2,6-dioxopiperidin-3-yl)oxy)benzamido)methyl)oxazole-4-carbonyl)piperazin-1-yl)pyrrolo[2,1-f][1,2,4]triazin-4-yl)-2-methylbenzyl)-1,2,4-oxadiazole-3-carboxamide]
Cc1cc(-c2ncnn3cc(N4CCN(C(=O)CC5CC6(CO5)CN(C(=O)c5ccc(OC7CCC(=O)NC7=O)cc5)C6)CC4)cc23)ccc1CNC(=O)c1noc(C(C)(C)C)n1 (stereo not drawn) [Example 190, 5-(tert-butyl)-N-(4-(6-(4-(2-(2-(4-((2,6-dioxopiperidin-3-yl)oxy)benzoyl)-6-oxa-2-azaspiro[3.4]octan-7-yl)acetyl)piperazin-1-yl)pyrrolo[2,1-f][1,2,4]triazin-4-yl)-2-methylbenzyl)-1,2,4-oxadiazole-3-carboxamide]
Cc1cc(-c2ncnn3cc(N4CCN(C(=O)C5CCN(C(=O)c6ccc(OC7CCC(=O)NC7=O)cc6)C56CCC6)CC4)cc23)ccc1CNC(=O)c1noc(C(C)(C)C)n1 (stereo not drawn) [Example 191, 5-(tert-butyl)-N-(4-(6-(4-(5-(4-((2,6-dioxopiperidin-3-yl)oxy)benzoyl)-5-azaspiro[3.4]octane-8-carbonyl)piperazin-1-yl)pyrrolo[2,1-f][1,2,4]triazin-4-yl)-2-methylbenzyl)-1,2,4-oxadiazole-3-carboxamide]
Cc1cc(-c2ncnn3cc(N4CCN(C(=O)CC(C)(C)CNC(=O)c5ccc(OC6CCC(=O)NC6=O)cc5)CC4)cc23)ccc1CNC(=O)c1noc(C(C)(C)C)n1 (stereo not drawn) [Example 192, 5-(tert-butyl)-N-(4-(6-(4-(4-(4-((2,6-dioxopiperidin-3-yl)oxy)benzamido)-3,3-dimethylbutanoyl)piperazin-1-yl)pyrrolo[2,1-f][1,2,4]triazin-4-yl)-2-methylbenzyl)-1,2,4-oxadiazole-3-carboxamide]
Cc1cc(-c2ncnn3cc(N4CCN(C(=O)c5ccccc5CNC(=O)c5ccc(OC6CCC(=O)NC6=O)cc5)CC4)cc23)ccc1CNC(=O)c1noc(C(C)(C)C)n1 (stereo not drawn) [Example 193, 5-(tert-butyl)-N-(4-(6-(4-(2-((4-((2,6-dioxopiperidin-3-yl)oxy)benzamido)methyl)benzoyl)piperazin-1-yl)pyrrolo[2,1-f][1,2,4]triazin-4-yl)-2-methylbenzyl)-1,2,4-oxadiazole-3-carboxamide]
Cc1cc(-c2ncnn3cc(-c4ccc(C(=O)Nc5cccc6c5CCN(C5CCC(=O)NC5=O)C6)cc4)cc23)ccc1CNC(=O)c1noc(C(C)(C)C)n1 (stereo not drawn) [Example 194, 5-(tert-butyl)-N-(4-(6-(4-((2-(2,6-dioxopiperidin-3-yl)-1,2,3,4-tetrahydroisoquinolin-5-yl)carbamoyl)phenyl)pyrrolo[2,1-f][1,2,4]triazin-4-yl)-2-methylbenzyl)-1,2,4-oxadiazole-3-carboxamide]
Cc1cc(-c2ncnn3cc(-c4ccc(C(=O)NCCc5cccc(NC6CCC(=O)NC6=O)c5)cc4)cc23)ccc1CNC(=O)c1noc(C(C)(C)C)n1 (stereo not drawn) [Example 196]
